The values that follow come from patent US11439615B2, “Lipoxin and lipoxin analogue mediated neuroprotection and treatments” (University Health Network, priority 2017, dated 2022).

Test [1] deals with retinal ganglion cell neurons (RGCs). The test is described as follows: Mouse acute retinal insult model (intravitreal kainic acid), RGC survival / GCL apoptosis. The format is in vivo. Conditions: 2 μl of 10 μM intravitreally one hour prior to retinal KA insult; RBPMS counts. The protocol:
Male C57BLL/6 mice, 4-6 weeks of age, were purchased from Taconic or Jackson labs. All experimental protocols were approved by the UHN and UC Berkeley ACUC in accordance with applicable regulations. Mice were anesthetized by intraperitoneal injection of ketamine/xylazine. Intravitreal injections with 10 mM kainic acid (KA) were performed as previously described (45). Briefly, a 30-gauge needle was inserted tangentially into the vitreous and replaced with a Hamilton syringe to inject a volume of 2 μL, followed by application of ophthalmic antibiotic ointment (BNP, Vetoquinol). In some experiments, 10× concentrated ACM or test compounds were injected intravitreally one hour prior to the KA injection in concentrations as follows: LXA4 and LXB4 at 10 μM, Zileuton at 2 μg/ul, and WRW4 at 15 μM, all dissolved in PBS. Mice were euthanized by CO2 asphyxiation 18 hours post KA treatment and the eyes fixed in 4% paraformaldehyde. In all experiments n refers to the number of animals tested.
To quantify the extent of apoptosis, a well-established method was used to count the number of TUNEL-positive nuclei in the ganglion cell layer (GCL) and expressed it as a fraction of the total GCL nuclei (50-54). TUNEL labeling was performed according to the manufacturer's instructions (DeadEnd; Promega). Briefly, cryostat sections were fixed with 4% PFA for 5 minutes and washed in PBS. Equilibration buffer was added, and rTdT reaction mix was applied to each slide and incubated at 37° C. for 60 min. Following the rTdT reaction, slides were washed in 2×SSC and PBS and finally mounted with glycerol-based medium. For RGC survival, RBPMS-positive cells in the GCL were counted and expressed as a fraction of GCL nuclei. For each eye, at least five central retinal sections were analyzed at the level of the optic nerve stretching to each ora serrata, and the results averaged, as previously described (42).
In order to test the influence of the transplanted cells on inner retinal pathology, RA's were transplanted as above. After 16 days retinas were challenged with an acute metabolic injury by injection of kainic acid (KA). […]
Retinal astrocyte neuroprotection is mediated through secreted factors that include a small molecule component enriched in LXA4 and LXB4. […] This time, survival of RGCs was specifically assessed by probing for the selective marker RBPMS, along with complementary TUNEL staining, and quantified as previously. As expected, extensive RGC loss was detected in KA challenged eyes injected with cell-free control media incubated under the same conditions as ACM (FIG. 2A). […]

Test [2] deals with dopaminergic SH-SY5Y cells. The test can be described thus: Mitochondrial oxidative stress in SH-SY5Y cells challenged with paraquat. The format is cell-based. Conditions: paraquat (PQ) induced oxidative stress, vs vehicle.
In test [3] the test system is primary RGCs. The test can be described thus: Primary RGCs under paraquat oxidative stress, cell and neurite survival. The format is cell-based, rat. The following applies: 1 μM, 24 hours of 30 μM PQ. How it is done: FIG. 5D is a graph showing Mitotracker red signal which indicates protection from […] membrane potential with LXB4 treatment (n=3). FIG. 5E is a series of images showing primary RGCs labeled with β3-tubulin extend an extensive network of neurites that disintegrate dramatically after 24 hours of 30 μM PQ. […] (Scale bar indicates 20 μm, *p<0.05, **p<0.01, bars are S.E.M.).
For astrocytes: Primary mature retinal astrocytes (RA) were isolated and cultured as previously described (46). Briefly, eyes were dissected out of adult Wistar rats and placed in ice-cold MEM-H17 media. Isolated retinas were digested by shaking in MEM-H17 containing papain and DNAse, followed by trituration to disperse cell-aggregates. When cultures reached confluence, the cells were placed on a rotating shaker for 6-8 hours to remove microglia and then re-plated. A glial-specific expression profile was confirmed by probing the cultures with a panel of glia microglia and neuronal markers (44). For RGCs: RGCs were purified using magnetic MicroBeads (Miltenyi Biotec, Germany) according to the manufacturer's protocol. Briefly; retinal cell suspensions were prepared from 8-10 day old rats and incubated with CD90.1 microbeads, and then carefully washed with DPBS/BSA buffer. The suspension was centrifuged at 130×g and the supernatant aspirated. Cells were then incubated with biotinylated depletion antibodies against microglia and endothelial cells. The labeled cell suspension was then incubated with magnetic Anti-Biotin MACSiBead™ Particles, and placed in a weak magnetic field. The pre-enriched cell suspension was centrifuged, and resuspended in fresh DPBS/BSA buffer and applied to a MACs MS separation column in the presence of a strong magnetic field to select for CD90.1-bound RGCs. To increase RGC purity, the eluted fraction was enriched over a second column. Purified RGCs were eluted and plated on poly-D-lysine coated dishes. The cells were cultured in Neurobasal-A media (Gibco) supplemented with 2% calf serum, B27, L-glutamine, BDNF, CNTF, forskolin and pen/strep.

As to `CCCCC[C@H](O)[C@H](O)/C=C/C=C/C=C\C=C\[C@@H](O)CCCC(=O)O` [LXB4, 5S,14R,15S-trihydroxy-6E,8Z,10E,12E-eicosatetraenoic acid], the “increase of RGC survival compared to vehicle control” value in test [1] was determined as 50%. The “mitochondrial oxidative stress / mitochondria stabilisation” value in test [2] is “stabilize mitochondria”. In test [3], the “RGC neurite degeneration following PQ challenge” value was “significantly rescued” and the “RGC survival following oxidative stress” value is “significant rescue”.
`CCCCC[C@H](O)/C=C/C=C\C=C\C=C\[C@@H](O)[C@@H](O)CCCC(=O)O` [LXA4, 5S,6R,15S-trihydroxy-7E,9E,11Z,13E-eicosatetraenoic acid]: the “increase of RGC survival compared to vehicle control” value in test [1] is listed as 37%. The “mitochondrial oxidative stress / mitochondria stabilisation” value in test [2] is reported as “stabilize mitochondria”. The “RGC survival following oxidative stress” value in test [3] was “significant rescue”.
